Reference: PubChem BioAssay (NCI)
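1) Cells in 96-well plates. 2) Compound, 48 h, 5 concentrations. 3) Linear interpolation between surrounding doses. 4) Unreached endpoint = highest concentration. Definition used: TGI = concentration required for complete inhibition of growth.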

Experiments:
Assay in all cases: NCI tumour cell line growth inhibition, 48 h
786-0 renal = tested on: 786-0 renal
A498 renal = tested on: A498 renal
A549 NSCLC = tested on: A549 NSCLC
ACHN renal = tested on: ACHN renal
CAKI-1 renal = tested on: CAKI-1 renal
CCRF-CEM leukemia = tested on: CCRF-CEM leukemia
COLO 205 colon = tested on: COLO 205 colon
DLD-1 colon = tested on: DLD-1 colon
DMS 114 small cell lung = tested on: DMS 114 small cell lung
DMS 273 small cell lung = tested on: DMS 273 small cell lung
EKVX NSCLC = tested on: EKVX NSCLC
HCC-2998 colon = tested on: HCC-2998 colon
HCT-116 colon = tested on: HCT-116 colon
HCT-15 colon = tested on: HCT-15 colon
HL-60(TB) leukemia = tested on: HL-60(TB) leukemia
HOP-18 NSCLC = tested on: HOP-18 NSCLC
HOP-62 NSCLC = tested on: HOP-62 NSCLC
HOP-92 NSCLC = tested on: HOP-92 NSCLC
HT29 colon = tested on: HT29 colon
IGROV1 ovarian = tested on: IGROV1 ovarian
K-562 leukemia = tested on: K-562 leukemia
KM12 colon = tested on: KM12 colon
KM20L2 colon = tested on: KM20L2 colon
LXFL 529 NSCLC = tested on: LXFL 529 NSCLC
M14 melanoma = tested on: M14 melanoma
M19-MEL melanoma = tested on: M19-MEL melanoma
MALME-3M melanoma = tested on: MALME-3M melanoma
MOLT-4 leukemia = tested on: MOLT-4 leukemia
NCI-H226 lung = tested on: NCI-H226 lung
NCI-H23 lung = tested on: NCI-H23 lung
NCI-H460 lung = tested on: NCI-H460 lung
NCI-H522 lung = tested on: NCI-H522 lung
OVCAR-4 ovarian = tested on: OVCAR-4 ovarian
OVCAR-5 ovarian = tested on: OVCAR-5 ovarian
OVCAR-8 ovarian = tested on: OVCAR-8 ovarian
RPMI-8226 leukemia = tested on: RPMI-8226 leukemia
RXF 393 renal = tested on: RXF 393 renal
SF-268 CNS = tested on: SF-268 CNS
SF-295 CNS = tested on: SF-295 CNS
SF-539 CNS = tested on: SF-539 CNS
SK-MEL-2 melanoma = tested on: SK-MEL-2 melanoma
SK-MEL-28 melanoma = tested on: SK-MEL-28 melanoma
SK-MEL-5 melanoma = tested on: SK-MEL-5 melanoma
SK-OV-3 ovarian = tested on: SK-OV-3 ovarian
SN12C renal = tested on: SN12C renal
SNB-19 CNS = tested on: SNB-19 CNS
SNB-75 CNS = tested on: SNB-75 CNS
SNB-78 CNS = tested on: SNB-78 CNS
SR leukemia = tested on: SR leukemia
SW-620 colon = tested on: SW-620 colon
TK-10 renal = tested on: TK-10 renal
U251 CNS = tested on: U251 CNS
UACC-257 melanoma = tested on: UACC-257 melanoma
UACC-62 melanoma = tested on: UACC-62 melanoma
UO-31 renal = tested on: UO-31 renal
XF 498 CNS = tested on: XF 498 CNS
BT-549 breast = tested on: BT-549 breast
DU-145 prostate = tested on: DU-145 prostate
HS 578T breast = tested on: HS 578T breast
LOX IMVI melanoma = tested on: LOX IMVI melanoma
MDA-MB-231 breast = tested on: MDA-MB-231 breast
OVCAR-3 ovarian = tested on: OVCAR-3 ovarian
PC-3 prostate = tested on: PC-3 prostate
T-47D breast = tested on: T-47D breast

COC(=O)C1=C(C)C(=O)[C@H]2C(C(=O)OC)CCCC[C@@H]12 (stereo not given in full)
TGI (786-0 renal): > 100 µM | TGI (A498 renal): > 100 µM | TGI (A549 NSCLC): > 100 µM | TGI (ACHN renal): > 100 µM | TGI (CAKI-1 renal): > 100 µM | TGI (CCRF-CEM leukemia): > 100 µM | TGI (COLO 205 colon): > 100 µM | TGI (DLD-1 colon): > 100 µM | TGI (DMS 114 small cell lung): 99 µM | TGI (DMS 273 small cell lung): > 100 µM | TGI (EKVX NSCLC): > 100 µM | TGI (HCC-2998 colon): > 100 µM | TGI (HCT-116 colon): > 100 µM | TGI (HCT-15 colon): > 100 µM | TGI (HL-60(TB) leukemia): > 100 µM | TGI (HOP-18 NSCLC): > 100 µM | TGI (HOP-62 NSCLC): > 100 µM | TGI (HOP-92 NSCLC): > 100 µM | TGI (HT29 colon): > 100 µM | TGI (IGROV1 ovarian): > 100 µM | TGI (K-562 leukemia): > 100 µM | TGI (KM12 colon): > 100 µM | TGI (KM20L2 colon): > 100 µM | TGI (LXFL 529 NSCLC): > 100 µM | TGI (M14 melanoma): > 100 µM | TGI (M19-MEL melanoma): > 100 µM | TGI (MALME-3M melanoma): > 100 µM | TGI (MOLT-4 leukemia): > 100 µM | TGI (NCI-H226 lung): > 100 µM | TGI (NCI-H23 lung): > 100 µM | TGI (NCI-H460 lung): > 100 µM | TGI (NCI-H522 lung): > 100 µM | TGI (OVCAR-4 ovarian): > 100 µM | TGI (OVCAR-5 ovarian): > 100 µM | TGI (OVCAR-8 ovarian): > 100 µM | TGI (RPMI-8226 leukemia): > 100 µM | TGI (RXF 393 renal): > 100 µM | TGI (SF-268 CNS): > 100 µM | TGI (SF-295 CNS): > 100 µM | TGI (SF-539 CNS): > 100 µM | TGI (SK-MEL-2 melanoma): > 100 µM | TGI (SK-MEL-28 melanoma): > 100 µM | TGI (SK-MEL-5 melanoma): > 100 µM | TGI (SK-OV-3 ovarian): > 100 µM | TGI (SN12C renal): > 100 µM | TGI (SNB-19 CNS): > 100 µM | TGI (SNB-75 CNS): > 100 µM | TGI (SNB-78 CNS): > 100 µM | TGI (SR leukemia): > 100 µM | TGI (SW-620 colon): > 100 µM | TGI (TK-10 renal): > 100 µM | TGI (U251 CNS): > 100 µM | TGI (UACC-257 melanoma): > 100 µM | TGI (UACC-62 melanoma): > 100 µM | TGI (UO-31 renal): > 100 µM | TGI (XF 498 CNS): > 100 µM

CC[C@@]1(O)C(=O)OCc2c1cc1n(c2=O)Cc2c-1nc1ccccc1c2Cl
TGI (786-0 renal): 0.126 µM | TGI (A498 renal): 0.352 µM | TGI (A549 NSCLC): 3.76 µM | TGI (ACHN renal): 0.0684 µM | TGI (BT-549 breast): 4.89 µM | TGI (CAKI-1 renal): 1.99 µM | TGI (CCRF-CEM leukemia): 0.172 µM | TGI (COLO 205 colon): 27.4 µM | TGI (DLD-1 colon): 63.4 µM | TGI (DMS 114 small cell lung): 2.06 µM | TGI (DMS 273 small cell lung): 0.578 µM | TGI (DU-145 prostate): 0.104 µM | TGI (EKVX NSCLC): 33.6 µM | TGI (HCC-2998 colon): 9.58 µM | TGI (HCT-116 colon): 1.11 µM | TGI (HCT-15 colon): 39.5 µM | TGI (HL-60(TB) leukemia): 0.132 µM | TGI (HOP-18 NSCLC): 18.3 µM | TGI (HOP-62 NSCLC): 0.0206 µM | TGI (HOP-92 NSCLC): 2.07 µM | TGI (HS 578T breast): 43.3 µM | TGI (HT29 colon): 5.62 µM | TGI (IGROV1 ovarian): 16 µM | TGI (K-562 leukemia): > 100 µM | TGI (KM12 colon): 1.83 µM | TGI (KM20L2 colon): 28.7 µM | TGI (LOX IMVI melanoma): 0.387 µM | TGI (LXFL 529 NSCLC): 34.7 µM | TGI (M14 melanoma): 0.318 µM | TGI (M19-MEL melanoma): 3.43 µM | TGI (MALME-3M melanoma): 12.6 µM | TGI (MDA-MB-231 breast): > 80.3 µM | TGI (MOLT-4 leukemia): 0.113 µM | TGI (NCI-H226 lung): 0.022 µM | TGI (NCI-H23 lung): 0.028 µM | TGI (NCI-H460 lung): 0.101 µM | TGI (NCI-H522 lung): 1.28 µM | TGI (OVCAR-3 ovarian): 4.84 µM | TGI (OVCAR-4 ovarian): 4.61 µM | TGI (OVCAR-5 ovarian): 3.65 µM | TGI (OVCAR-8 ovarian): 2.13 µM | TGI (PC-3 prostate): > 100 µM | TGI (RPMI-8226 leukemia): 1.42 µM | TGI (RXF 393 renal): 0.116 µM | TGI (SF-268 CNS): 12.6 µM | TGI (SF-295 CNS): 0.511 µM | TGI (SF-539 CNS): 0.022 µM | TGI (SK-MEL-2 melanoma): 7.72 µM | TGI (SK-MEL-28 melanoma): 63.9 µM | TGI (SK-MEL-5 melanoma): 0.134 µM | TGI (SK-OV-3 ovarian): 4.29 µM | TGI (SN12C renal): 0.683 µM | TGI (SNB-19 CNS): 15.5 µM | TGI (SNB-75 CNS): 0.259 µM | TGI (SNB-78 CNS): 87.5 µM | TGI (SR leukemia): 0.186 µM | TGI (SW-620 colon): 39.7 µM | TGI (T-47D breast): 0.349 µM | TGI (TK-10 renal): 80.8 µM | TGI (U251 CNS): 0.445 µM | TGI (UACC-257 melanoma): 7.01 µM | TGI (UACC-62 melanoma): 0.107 µM | TGI (UO-31 renal): 0.109 µM | TGI (XF 498 CNS): 2.15 µM
